Experimental data from patent publication US8129327B2, “Packaging for high moisture bar soap” (The Procter & Gamble Company, priority 2006, dated 2012).

Tests used:
[1] = test system: aspergillus sydowii; assay: inhibition of mold growth on paperboard package containing high moisture bar soap; conditions: fungicide-treated paperboard package containing high moisture bar soap
Text: (§1) The present invention further relates to a method of inhibiting the growth of mold, especially certain species of mold such as aspergillus sydowii and/or penicillium chrysogenum, that can grow on a paperboard package containing a high moisture bar soap composition.
(§2) Such a fungicide material is commercially available from Intace S.A. under the tradename INTACE B-6773.

[2] = test system: penicillium chrysogenum; assay: as above; conditions: fungicide-treated paperboard package containing high moisture bar soap
Text: as §1, §2

COC(=O)Nc1nc2ccccc2[nH]1 [carbendazim]
inhibition of the growth of mold on paperboard packaging [1]: typically resistant
inhibition of the growth of mold on paperboard packaging [2]: typically resistant
